Laboratory results published in US9169241B2, “Quinolinyloxyphenylsulfonamides” (Max-Planck-Gesellschaft Zur Forderung der Wissenschaften …, priority 2009, dated 2015).
Read-outs that look alike come from different tables or passages of the source.

Key:
[1] = tested on: Hs578T; assay: Cell vitality assay (ATP assay, CellTiter-Glo); type: cell-based; conditions: Homo sapiens, Hs-578T, 72 h
Method in brief: (§1)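 Viability is estimated from cellular ATP after 72 h of compound treatment at 1000 cells per well. The dilution series runs 12.5, 6.25, 3.125, 1.56, 0.78, 0.39 and 0.195 μM. Half-maximal values are expressed against DMSO-treated wells.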

[2] = tested on: SF126; assay: Cell vitality assay (ATP assay, CellTiter-Glo); type: cell-based; conditions: Homo sapiens, SF-126
Method in brief: as §1

[3] = tested on: U118; assay: Cell vitality assay (ATP assay, CellTiter-Glo); type: cell-based
Method in brief: as §1

[4] = tested on: indicated cell line; assay: Wound healing migration assay (Table IV); type: cell-based; conditions: compounds at 12.5, 6.25, 3.125 μM, 48 h-72 h
Method in brief: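 Compound exposure at 12.5, 6.25 and 3.125 μM, with DMSO control, on scratch-wounded monolayers (150000 cells/24 well, overnight). Wound closure imaged by microscopy, fixed with crystal violet after 48 h or 72 h depending on cell line; IC50 is the concentration giving 50% wound size between t0 and t48/t72.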

[5] = tested on: Hs578T; assay: Matrigel outgrowth assay/branching assay; type: cell-based; conditions: Homo sapiens, Hs-578T; HS578T cell line; Table Ib; read-out: Total branching inhibition in Matrigel HS578T
Method in brief: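 Invasive outgrowth into a 3 mg/ml Matrigel gel is judged from images taken after 48, 72 and 96 h of exposure to 3.125, 1.56 or 0.78 μM compound, with DMSO as control. Positive means total inhibition of branching.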

[6] = Hs578T, Table IIa, read-out: IC50 ATP-Assay after 72 h Hs578T
[7] = SF126, 72 h, Table IIa, read-out: IC50 ATP-Assay after 72 h SF126
[8] = U118, 72 h, Table IIa, read-out: IC50 ATP-Assay after 72 h U118
[9] = Homo sapiens, C8161 cells, read-out: IC50 Wound healing Assay C8161
[10] = SF763 cells, read-out: IC50 Wound healing Assay SF763
[11] = HS578T cell line, Table Ib, read-out: IC50 ATP-Assay HS578T after 72 h
[12] = Homo sapiens, A 172, A172 cells, read-out: IC50 Wound healing Assay A172
[13] = Homo sapiens, SF-126, SF126 cells, read-out: IC50 Wound healing Assay SF126
[14] = U118 cells, read-out: IC50 Wound healing Assay U118

IC50 [4, 9]	IC50 [4, 10]	melting point	IC50 [4, 12]	IC50 [4, 13]	IC50 [4, 14]	SMILES	IC50 [1, 6]	IC50 [2, 7]	IC50 [3, 8]	IC50 [5]	IC50 [1, 11]	IC50 ([2]; cell vitality assay, SF126, Table IIb, read-out: IC50 SF126)	IC50 ([3]; cell vitality assay, U118, Table IIc, read-out: IC50 U118)
		118 to 121 °C	≤ 12.5 µM	≤ 12.5 µM	≤ 12.5 µM	COc1cc2c(Oc3ccc(NS(=O)(=O)c4cc(F)ccc4F)cc3Cl)ccnc2cc1OCCCN1CCN(C)CC1 [Example 112, N-(3-Chloro-4-{6-methoxy-7-[3-(4-methyl-piperazin-1-yl)-propoxy]-quinolin-4-yloxy}-phenyl)-2,5-difluoro-benzenesulfonamide]		≤ 12.5 µM	≤ 12.5 µM	≤ 10 µM	≤ 12.5 µM		
≤ 12.5 µM	12.5 to 50 µM	134 to 135 °C				COc1cc2c(Oc3ccc(NS(=O)(=O)c4ccccc4C(F)(F)F)cc3F)ccnc2cc1OCC(=O)N(C)C [Example 93, 2-{4-[2-Fluoro-4-(2-trifluoromethyl-benzenesulfonylamino)-phenoxy]-6-methoxy-quinolin-7-yloxy}-N,N-dimethyl-acetamide]	≤ 12.5 µM	≤ 12.5 µM	≤ 12.5 µM	≤ 10 µM			
		138 to 139 °C	≤ 12.5 µM	≤ 12.5 µM	≤ 12.5 µM	COC(=O)c1sccc1S(=O)(=O)Nc1ccc(Oc2ccnc3cc(OCCCN4CCCCC4)c(OC)cc23)c(F)c1 [Example 155, 3-{3-Fluoro-4-[6-methoxy-7-(3-piperidin-1-yl-propoxy)-quinolin-4-yloxy]-phenylsulfamoyl}-thiophene-2-carboxylic acid methyl ester]		≤ 12.5 µM	≤ 12.5 µM	10 to 25 µM	≤ 12.5 µM		
			≤ 12.5 µM	≤ 12.5 µM	≤ 12.5 µM	COc1cc2c(Oc3ccc(NS(=O)(=O)c4c(F)cccc4F)cc3F)ccnc2cc1OCCCN1CCN(C)CC1 [Example 110, 2,6-Difluoro-N-(3-fluoro-4-{6-methoxy-7-[3-(4-methyl-piperazin-1-yl)-propoxy]-quinolin-4-yloxy}-phenyl)-benzenesulfonamide]		≤ 12.5 µM	≤ 12.5 µM	≤ 10 µM	≤ 12.5 µM		
12.5 to 50 µM	≤ 12.5 µM					COc1cc2c(Oc3c(Cl)cc(NS(=O)(=O)c4c(F)cccc4F)cc3Cl)ccnc2cc1OCCCN1CCN(C)CC1 [Example 88, N-(3,5-Dichloro-4-{6-methoxy-7-[3-(4-methyl-piperazin-1-yl)-propoxy]-quinolin-4-yloxy}-phenyl)-2,6-difluoro-benzenesulfonamide]	≤ 12.5 µM	12.5 to 50 µM	≤ 12.5 µM	10 to 25 µM			
12.5 to 50 µM	12.5 to 50 µM					COc1cc2c(Oc3ccc(NS(=O)(=O)c4ccccc4C(F)(F)F)cc3F)ccnc2cc1OCCCNC1CCOCC1 [Example 95, N-(3-Fluoro-4-{6-methoxy-7-[3-(tetrahydro-pyran-4-ylamino)-propoxy]-quinolin-4-yloxy}-phenyl)-2-trifluoromethyl-benzenesulfonamide]	12.5 to 50 µM	≤ 12.5 µM	≤ 12.5 µM	≤ 10 µM			

More lines, now with the values behind:

SMILES	IC50 [4, 9]	IC50 [4, 10]	melting point	IC50 [4, 12]	IC50 [4, 13]	IC50 [4, 14]	IC50 [1, 6]	IC50 [2, 7]	IC50 [3, 8]	IC50 [5]	IC50 [1, 11]	IC50 ([2]; cell vitality assay, SF126, Table IIb, read-out: IC50 SF126)	IC50 ([3]; cell vitality assay, U118, Table IIc, read-out: IC50 U118)
COc1cc2c(Oc3ccc(NS(=O)(=O)c4cccc(C)c4)cc3F)ccnc2cc1OCCCN1CCCC(C)C1 (centres unmarked) [Example 70, N-(3-Fluoro-4-{6-methoxy-7-[3-(3-methyl-piperidin-1-yl)-propoxy]-quinolin-4-yloxy}-phenyl)-3-methyl-benzenesulfonamide]	12.5 to 50 µM	≤ 12.5 µM	168 to 170 °C				12.5 to 50 µM	≤ 12.5 µM	≤ 12.5 µM	≤ 10 µM			
COc1cc2c(Oc3ccc(NS(=O)(=O)c4c(Cl)cccc4Cl)cc3F)ccnc2cc1OCCCN1CCCC(C)C1 (centres unmarked) [Example 51, 2,6-Dichloro-N-(3-fluoro-4-{6-methoxy-7-[3-(3-methyl-piperidin-1-yl)-propoxy]-quinolin-4-yloxy}-phenyl)-benzenesulfonamide]			119 to 121 °C	≤ 12.5 µM	≤ 12.5 µM	≤ 12.5 µM		≤ 12.5 µM	≤ 12.5 µM	≤ 10 µM	≤ 12.5 µM		
COc1cc2c(Oc3ccc(NS(=O)(=O)c4ccccc4[N+](=O)[O-])cc3F)ccnc2cc1OCCCN1CCN(C)CC1 [Example 21, N-(3-Fluoro-4-{6-methoxy-7-[3-(4-methyl-piperazin-1-yl)-propoxy]-quinolin-4-yloxy}-phenyl)-2-nitro-benzenesulfonamide]	≤ 12.5 µM	12.5 to 50 µM	125 to 128 °C					12.5 to 50 µM	12.5 to 50 µM	≤ 10 µM			
COc1cc2c(Oc3ccc(NS(=O)(=O)c4ccc(C)c(F)c4)cc3F)ccnc2cc1OCCCN1CCCC(C)C1 (centres unmarked) [Example 56, 3-Fluoro-N-(3-fluoro-4-{6-methoxy-7-[3-(3-methyl-piperidin-1-yl)-propoxy]-quinolin-4-yloxy}-phenyl)-4-methyl-benzenesulfonamide]	≤ 12.5 µM	12.5 to 50 µM	174 to 176 °C				12.5 to 50 µM	≤ 12.5 µM	12.5 to 50 µM	10 to 25 µM	12.5 to 50 µM		
COc1cc2c(Oc3ccc(NS(=O)(=O)c4c(F)cccc4F)cc3F)ccnc2cc1OCCCN1CCOCC1 [Example 77, 2,6-Difluoro-N-{3-fluoro-4-[6-methoxy-7-(3-morpholin-4-yl-propoxy)-quinolin-4-yloxy]-phenyl}-benzenesulfonamide]	≤ 12.5 µM	≤ 12.5 µM	190 to 192 °C	≤ 12.5 µM	≤ 12.5 µM	≤ 12.5 µM	≤ 12.5 µM	12.5 to 50 µM	≤ 12.5 µM	≤ 10 µM	≤ 12.5 µM		
COc1cc2c(Oc3ccc(NS(=O)(=O)c4cccc(C#N)c4)cc3F)ccnc2cc1OCCCN1CCCC(C)C1 (centres unmarked) [Example 41, 3-Cyano-N-(3-fluoro-4-{6-methoxy-7-[3-(3-methyl-piperidin-1-yl)-propoxy]-quinolin-4-yloxy}-phenyl)-benzenesulfonamide]	12.5 to 50 µM	≤ 12.5 µM	125 to 127 °C				≤ 12.5 µM	12.5 to 50 µM	≤ 12.5 µM	≤ 10 µM			
COc1cc2c(Oc3ccc(NS(=O)(=O)c4cc(F)ccc4F)cc3F)ccnc2cc1OCCCN1CCN(C)CC1 [Example 12, 2,5-Difluoro-N-(3-fluoro-4-{6-methoxy-7-[3-(4-methyl-piperazin-1-yl)-propoxy]-quinolin-4-yloxy}-phenyl)-benzenesulfonamide]	≤ 12.5 µM			≤ 12.5 µM	≤ 12.5 µM	≤ 12.5 µM		≤ 12.5 µM	≤ 12.5 µM	≤ 10 µM	≤ 12.5 µM	≤ 12.5 µM	≤ 12.5 µM
COc1cc2c(Oc3ccc(NS(=O)(=O)c4cccc(Oc5ccccc5)c4)cc3F)ccnc2cc1OCCCN1CCN(C)CC1 [Example 14, N-(3-Fluoro-4-{6-methoxy-7-[3-(4-methyl-piperazin-1-yl)-propoxy]-quinolin-4-yloxy}-phenyl)-3-phenoxy-benzenesulfonamide]	12.5 to 50 µM	12.5 to 50 µM	140 to 141 °C					≤ 12.5 µM	12.5 to 50 µM				
